The target of the assay is TNFα trimer (Homo sapiens, UniProt P01375). The experiment in a line: TNFα FP Competitive Binding Assay. The procedure, abridged:
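Compounds, 12-point 1:3 dilutions topping at 100 μM (2.0% DMSO) or 338 μM (3.4% DMSO) final, compete with 1 nM fluorescent probe for 20 nM TNFα trimer in HEPES/NaCl/EDTA/Triton buffer. After 18-24 h incubation at 37 °C plus 1 h rt equilibration, background-subtracted polarization is read and fitted with variable slope.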

[1] abbreviates: TNFα FP competitive binding assay, class symbols A/B/C, read-out: TNF IC50.
The mark [2] stands for this setting: fluorescence polarization competition, 20 nM TNFα trimer, 1 nM OregonGreen488 probe, read-out: TNF IC50 (TNFα FP binding assay IC50).

The structures appear in SMILES notation. Where two headings read alike, the source gives them in different places.

TNFα trimer, sequence (P01375 77-233 limits assumed): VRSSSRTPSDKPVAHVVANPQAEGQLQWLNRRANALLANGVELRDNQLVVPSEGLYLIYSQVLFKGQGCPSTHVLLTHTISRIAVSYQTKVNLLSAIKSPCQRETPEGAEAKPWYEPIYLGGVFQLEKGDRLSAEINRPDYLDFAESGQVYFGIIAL

On to `O=C1NC[C@@H]2CN(c3ncc(-c4ccc5nc6n(c5n4)C4(CCOc5ccccc54)COC6)cn3)CCN12` (stereo partly drawn) [BB.1], for which the IC50 under setting [1] was under 1000 nM. In the case of `OC1CCN(c2ncc(-c3ccc4nc5n(c4n3)C3(CCOc4ccccc43)COC5)cn2)CC1` (stereo not drawn) [BB.2], under setting [1], the 50% inhibitory concentration (IC50) is under 1000 nM. On to `OC1CCCN(c2ncc(-c3ccc4nc5n(c4n3)C3(CCOc4ccccc43)COC5)cn2)C1` (stereo not drawn) [BB.3], for which, under setting [1], the IC50 was under 1000 nM.

Turning to `OC1CN(c2ncc(-c3ccc4nc5n(c4n3)C3(CCOc4ccccc43)COC5)cn2)C1` (stereo not drawn) [BB.4], the IC50 under setting [1] is under 1000 nM.

Turning to `OC1CCN(c2ncc(-c3ccc4nc5n(c4n3)C3(CCOc4ccccc43)COC5)cn2)C1` (stereo not drawn) [BB.5], the IC50 under setting [1] was under 1000 nM. `OC1CC(Nc2ncc(-c3ccc4nc5n(c4n3)C3(CCOc4ccccc43)COC5)cn2)C1` (stereo not drawn) [BB.6]: under setting [1], the 50% inhibitory concentration (IC50) was 1000 to 10000 nM.

Regarding `CC1(O)CN(c2ncc(-c3ccc4nc5n(c4n3)C3(CCOc4ccccc43)COC5)cn2)C1` (stereo not drawn) [BB.7], the half-inhibitory concentration (IC50) under setting [1] was in the range of 1000 to 10000 nM. Still for that read-out and setting: to `CN1CCN(c2ncc(-c3ccc4nc5n(c4n3)C3(CCOc4ccccc43)COC5)cn2)CC1` (stereo not drawn) [BB.8] belongs 1000 to 10000 nM; to `COCCOc1cc(-c2ccc3nc4n(c3n2)[C@@H](c2ccccc2)CC4)ccn1` [BC.1], 1000 to 10000 nM; to `CC(C)(O)COc1cc(-c2ccc3nc4n(c3n2)[C@@H](c2ccccc2)CC4)ccn1` [BC.2], 1000 to 10000 nM. Take `c1ccc(C2C3CC(C3)c3nc4ccc(-c5ccnc(OC6CCOCC6)c5)nc4n32)cc1` (stereo not drawn) [BD.1]: the IC50 under setting [1] lay in the range of 1000 to 10000 nM. For `c1ccc(C2C3CC(C3)c3nc4ccc(-c5cnc(N6CCOCC6)nc5)nc4n32)cc1` (stereo not drawn) [BE.1], the 50% inhibitory concentration (IC50) under setting [1] is 1000 to 10000 nM. The same measure, in the same setting: then `C1=C(c2ccc3nc4n(c3n2)C2(COC4)COc3ccccc32)CNC1` (stereo not drawn) [BF.1], with 1000 to 10000 nM. On to `CNCC(=O)N1CC=C(c2ccc3nc4n(c3n2)C2(COC4)COc3ccccc32)CC1` (stereo not drawn) [BF.2], for which the IC50 under setting [1] was 1000 to 10000 nM.

Turning to `c1ccc2c(c1)OCC21COCc2nc3ccc(-c4ccnc(OC5CCOCC5)c4)nc3n21` (stereo not drawn) [BG.1], the IC50 under setting [1] was in the range of 1000 to 10000 nM. As for `COc1ncc(-c2ccc3nc4n(c3n2)C2(COC4)COc3ccccc32)cn1` (stereo not drawn) [BG.2], under setting [1], the IC50 was 1000 to 10000 nM. For the compound `C[C@H]1CN(c2ncc(-c3ccc4nc5n(c4n3)C3(COC5)COc4ccccc43)cn2)CCN1C(=O)COC(C)(C)C` (stereo partly drawn) [BG.3, 2-(tert-Butoxy)-1-((2S)-4-(5-(6′,8′-dihydro-2H-spiro[benzofuran-3,9′-pyrido[3′,2′:4,5]imidazo[2,1-c][1,4]oxazin]-2′-yl)pyrimidin-2-yl)-2-methylpiperazin-1-yl)ethanone], the IC50 under setting [1] was 1000 to 10000 nM. On the same count and under the same terms, to `C[C@H]1CN(C(=O)COC(C)(C)C)CCN1c1ncc(-c2ccc3nc4n(c3n2)C2(COC4)COc3ccccc32)cn1` (stereo partly drawn) [BG.4, 1-((3S)-4-(5-(2H,6′H,8′H-Spiro[benzofuran-3,9′-pyrido[3′,2′:4,5]imidazo[2,1-c][1,4]oxazin]-2′-yl)pyrimidin-2-yl)-3-methylpiperazin-1-yl)-2-(tert-butoxy)ethan-1-one] belongs 1000 to 10000 nM; to `C[C@@H]1CN(C(=O)COC(C)(C)C)CCN1c1ncc(-c2ccc3nc4n(c3n2)C2(COC4)COc3ccccc32)cn1` (stereo partly drawn) [BG.5, 1-((3R)-4-(5-(2H,6′H,8′H-Spiro[benzofuran-3,9′-pyrido[3′,2′:4,5]imidazo[2,1-c][1,4]oxazin]-2′-yl)pyrimidin-2-yl)-3-methylpiperazin-1-yl)-2-(tert-butoxy)ethan-1-one], 1000 to 10000 nM; to `C[C@@H]1CN(c2ncc(-c3ccc4nc5n(c4n3)C3(COC5)COc4ccccc43)cn2)CCN1C(=O)COC(C)(C)C` (stereo partly drawn) [BG.6, 1-((2R)-4-(5-(2H,6′H,8′H-Spiro[benzofuran-3,9′-pyrido[3′,2′:4,5]imidazo[2,1-c][1,4]oxazin]-2′-yl)pyrimidin-2-yl)-2-methylpiperazin-1-yl)-2-(tert-butoxy)ethan-1-one], under 1000 nM. Turning to `C[C@H]1CN(C(=O)CO)CCN1c1ncc(-c2ccc3nc4n(c3n2)C2(COC4)COc3ccccc32)cn1` (stereo partly drawn) [BH.1], the IC50 under setting [1] is under 1000 nM.

Take `C[C@@H]1CN(C(=O)CO)CCN1c1ncc(-c2ccc3nc4n(c3n2)C2(COC4)COc3ccccc32)cn1` (stereo partly drawn) [BH.2]: the 50% inhibitory concentration (IC50) under setting [1] is under 1000 nM. For `C[C@@H]1CN(c2ncc(-c3ccc4nc5n(c4n3)C3(COC5)COc4ccccc43)cn2)CCN1C(=O)CO` (stereo partly drawn) [BH.3], under setting [1], the IC50 was under 1000 nM.

In the case of `COC(C)(C)CC(=O)N1CC=C(c2ccc3nc4n(c3n2)C2(COC4)COc3ccccc32)CC1` (stereo not drawn) [BI.1], the 50% inhibitory concentration (IC50) under setting [1] fell in the range of 1000 to 10000 nM.

Turning to `OC1CCN(c2ncc(-c3ccc4nc5n(c4n3)[C@@]3(COC5)COc4ccccc43)cn2)CC1` [BJ.1], under setting [1], the IC50 is under 1000 nM.

In the case of `O[C@H]1CC[C@@H](COc2cc(-c3ccc4nc5n(c4n3)[C@@H](c3ccccc3)CC5)ccn2)CC1` [BK.1], for the setting “Table BK, read-out: TNF IC50”, the IC50 was under 1000 nM.

On to `O[C@H]1CC[C@H](COc2cc(-c3ccc4nc5n(c4n3)[C@@H](c3ccccc3)CC5)ccn2)CC1` [BK.2], for which, for the setting “Table BK, read-out: TNF IC50”, the IC50 lay within 1000 to 10000 nM. As to `OC[C@H]1CC[C@H](COc2cc(-c3ccc4nc5n(c4n3)[C@@H](c3ccccc3)CC5)ccn2)CC1` [BK.3], the IC50 (Table BK, read-out: TNF IC50) lay in the range of 1000 to 10000 nM.

`C[C@@H]1CN(c2ncc(-c3ccc4nc5n(c4n3)[C@@]3(COC5)COc4ccccc43)cn2)CCN1C(=O)CO` [BL.1]: the IC50 (Table BL, read-out: TNF IC50) was under 1000 nM. Turning to `C[C@@H]1CN(c2ncc(-c3ccc4nc5n(c4n3)[C@]3(COC5)COc4ccccc43)cn2)CCN1C(=O)CO` [BM.1], the IC50 (Table BM, read-out: TNF IC50) was in the range of 1000 to 10000 nM.

As to `C[C@H]1CN(c2ncc(-c3ccc4nc5n(c4n3)[C@]3(COC5)COc4ccccc43)cn2)CCN1C(=O)CO` [BM.2], the half-inhibitory concentration (IC50) (Table BM, read-out: TNF IC50) was 1000 to 10000 nM. Take `COC(=O)CC1CC=C(c2ccc3nc4n(c3n2)[C@@H](c2ccccc2)CC4)CC1` (stereo partly drawn) [BN.1]: where the note is “Table BN, read-out: TNF IC50”, the half-maximal inhibitory concentration (IC50) was 1000 to 10000 nM. On to `OC1CCN(c2ncc(-c3ccc4nc5n(c4n3)C3(COCc4ccccc43)COC5)cn2)CC1` (stereo not drawn) [BO.1], for which the IC50 (Table BO, read-out: TNF IC50) lay within 1000 to 10000 nM. As to `O=C1NC[C@@H]2CN(c3ncc(-c4ccc5nc6n(c5n4)C4(COCc5ccccc54)COC6)cn3)CCN12` (stereo partly drawn) [BO.2], for the setting “Table BO, read-out: TNF IC50”, the concentration for half-maximal inhibition (IC50) was under 1000 nM. As for `c1ccc2c(c1)COCC21COCc2nc3ccc(-c4cnc(N5CCOCC5)nc4)nc3n21` (stereo not drawn) [BP.1], the IC50 (Table BP, read-out: TNF IC50) fell in the range of 1000 to 10000 nM. For the compound `CC(C)(N)c1ncc(-c2ccc3nc4n(c3n2)[C@@H](c2ccccc2)CC4)cn1` [BQ.1], the IC50 (Table BQ, read-out: TNF IC50) lay within 1000 to 10000 nM. `c1ccc([C@@H]2CCc3nc4ccc(-c5cnc(N6CCOCC6)nc5)cc4n32)cc1` [C.1]: the IC50 under setting [2] lay in the range of 10000 to 100000 nM. On the same count and under the same terms, then `c1ccc([C@H]2CCc3nc4ccc(-c5cnc(N6CCOCC6)nc5)cc4n32)cc1` [D.3], with under 1000 nM. Regarding `c1ccc(C2CCOc3nc4ccc(-c5cnc(N6CCOCC6)nc5)cn4c32)cc1` (stereo not drawn) [D.4], the IC50 under setting [2] fell in the range of 1000 to 10000 nM. For `COc1ccccc1C1CCOc2nc3ccc(-c4cnc(N5CCOCC5)nc4)cn3c21` (stereo not drawn) [D.5], under setting [2], the half-maximal inhibitory concentration (IC50) is under 1000 nM. On the same count and under the same terms, to `CC(C)(O)c1ncc(-c2ccc3nc4n(c3c2)C(c2ccccc2)CCC4)cn1` (stereo not drawn) [E.1, 2-(5-(1-Phenyl-1,2,3,4-tetrahydrobenzo[4,5]imidazo[1,2-a]pyridin-8-yl)pyrimidin-2-yl)propan-2-ol] belongs under 1000 nM; to `CC(C)(O)c1ncc(-c2ccc3nc4n(c3c2)C(c2ccccc2O)CCC4)cn1` (stereo not drawn) [E.2], 10000 to 100000 nM; to `COc1ccccc1C1CCc2nc3ccc(-c4cnc(C(C)(C)O)nc4)cc3n21` (stereo not drawn) [E.3], under 1000 nM. `CC(C)(O)c1ncc(-c2ccc3nc4n(c3n2)C2(COC4)COc3ccccc32)cn1` (stereo not drawn) [E.4, 2-(5-(6′,8′-Dihydro-2H-spiro[benzofuran-3,9′-pyrido[3′,2′:4,5]imidazo[2,1-c][1,4]oxazin]-2′-yl)pyrimidin-2-yl)propan-2-ol]: the concentration for half-maximal inhibition (IC50) under setting [2] was under 1000 nM. In the case of `CC(C)(O)c1ncc(-c2ccc3nc4n(c3n2)C2(CCOc3ccccc32)COC4)cn1` (stereo not drawn) [E.5, 2-(5-(6′,8′-Dihydrospiro[chroman-4,9′-pyrido[3′,2′:4,5]imidazo[2,1-c][1,4]oxazin]-2′-yl)pyrimidin-2-yl)propan-2-ol], the half-maximal inhibitory concentration (IC50) under setting [2] is 1000 to 10000 nM.

As for `CC(C)(O)c1ncc(-c2ccc3nc4n(c3c2)C(c2ccccc2)CC4)cn1` (stereo not drawn) [Example 1, 2-(5-(1-Phenyl-2,3-dihydro-1H-benzo[d]pyrrolo[1,2-a]imidazol-7-yl)pyrimidin-2-yl)propan-2-ol], under setting [2], the IC50 is under 1000 nM. In the case of `CC(C)(O)c1ncc(-c2ccc3nc4n(c3c2)[C@@H](c2ccccc2)CC4)cn1` [Example 2, (R)-2-(5-(1-Phenyl-2,3-dihydro-1H-benzo[d]pyrrolo[1,2-a]imidazol-7-yl)pyrimidin-2-yl)propan-2-ol], the IC50 under setting [2] is under 1000 nM. For `O=C1NCC2CN(c3ncc(-c4ccc5nc6n(c5c4)[C@@H](c4ccccc4)CC6)cn3)CCN12` (stereo partly drawn) [Example 3, 7-(5-((R)-1-Phenyl-2,3-dihydro-1H-benzo[d]pyrrolo[1,2-a]imidazol-7-yl)pyrimidin-2-yl)hexahydroimidazo[1,5-a]pyrazin-3(2H)-one], the IC50 under setting [2] was under 1000 nM. Consider `OC1CCN(c2ncc(-c3ccc4nc5n(c4c3)[C@@H](c3ccccc3)COC5)cn2)CC1` [Example 4, (S)-1-(5-(4-Phenyl-3,4-dihydro-1H-benzo[4,5]imidazo[2,1-c][1,4]oxazin-7-yl)pyrimidin-2-yl)piperidin-4-ol], for which the IC50 under setting [2] is under 1000 nM.

In the case of `COc1ccccc1C1(O)CCCc2nc3ccc(-c4cnc(N5CCOCC5)nc4)cn3c21` (stereo not drawn) [Example 5, 9-(2-Methoxyphenyl)-2-(2-morpholinopyrimidin-5-yl)-6,7,8,9-tetrahydrobenzo[4,5]imidazo[1,2-a]pyridin-9-ol], the IC50 under setting [2] was in the range of 1000 to 10000 nM. Take `c1ccc(C2CCc3nc4ccc(-c5cnc(N6CCOCC6)nc5)nc4n32)cc1` (stereo not drawn) [Example 6, 4-(5-(8-Phenyl-7,8-dihydro-6H-pyrrolo[2′,1′:2,3]imidazo[4,5-b]pyridin-2-yl)pyrimidin-2-yl)morpholine]: under setting [2], the half-inhibitory concentration (IC50) was under 1000 nM.
